Source: ChEMBL document CHEMBL1125576, “alpha-Keto amide inhibitors of aminopeptidases” (J Med Chem, 1992)

Columns and labels:
Aminopeptidase B = Aminopeptidase B (Homo sapiens, UniProt Q9H4A4); experiment: Compound was tested for binding affinity towards arginyl aminopeptidase
Aminopeptidase N [1] = target: T1, Aminopeptidase N (Homo sapiens, UniProt P15144); experiment: Compound was tested for binding affinity towards microsomal aminopeptidase
Aminopeptidase N [2] = target: T1, Aminopeptidase N; experiment: Compound was tested for binding affinity towards microsomal aminopeptidase; Kii was reported
Aminopeptidase N [3] = target: T1, Aminopeptidase N; experiment: Compound was tested for binding affinity towards microsomal aminopeptidase; Kis was reported

T1 sequence (P15144 whole entry): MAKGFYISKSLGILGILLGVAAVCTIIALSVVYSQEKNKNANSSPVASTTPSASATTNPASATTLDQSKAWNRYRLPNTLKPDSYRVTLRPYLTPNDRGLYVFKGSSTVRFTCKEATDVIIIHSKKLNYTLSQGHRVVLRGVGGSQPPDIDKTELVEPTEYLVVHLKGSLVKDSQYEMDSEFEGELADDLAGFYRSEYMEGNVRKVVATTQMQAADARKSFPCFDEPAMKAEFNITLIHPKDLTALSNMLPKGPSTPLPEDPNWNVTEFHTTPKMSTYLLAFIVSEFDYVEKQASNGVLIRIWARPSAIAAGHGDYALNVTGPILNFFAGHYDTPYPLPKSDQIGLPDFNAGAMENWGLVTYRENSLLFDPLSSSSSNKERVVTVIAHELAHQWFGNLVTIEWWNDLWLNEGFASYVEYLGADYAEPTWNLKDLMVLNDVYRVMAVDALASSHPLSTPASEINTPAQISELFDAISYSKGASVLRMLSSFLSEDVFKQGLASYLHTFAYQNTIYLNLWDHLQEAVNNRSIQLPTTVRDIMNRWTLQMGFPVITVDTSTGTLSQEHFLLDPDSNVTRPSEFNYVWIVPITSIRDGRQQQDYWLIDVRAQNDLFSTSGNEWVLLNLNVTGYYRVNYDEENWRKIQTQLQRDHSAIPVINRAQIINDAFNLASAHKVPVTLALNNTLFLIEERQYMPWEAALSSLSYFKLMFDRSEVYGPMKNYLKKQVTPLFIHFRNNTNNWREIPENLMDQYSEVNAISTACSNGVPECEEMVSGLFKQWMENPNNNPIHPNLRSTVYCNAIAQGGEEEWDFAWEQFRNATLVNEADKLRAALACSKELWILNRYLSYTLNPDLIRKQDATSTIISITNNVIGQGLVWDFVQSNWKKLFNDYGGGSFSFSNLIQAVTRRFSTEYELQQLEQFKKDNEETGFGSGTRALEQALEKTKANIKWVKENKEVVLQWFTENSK
Sequence of Aminopeptidase B (Q9H4A4 whole entry): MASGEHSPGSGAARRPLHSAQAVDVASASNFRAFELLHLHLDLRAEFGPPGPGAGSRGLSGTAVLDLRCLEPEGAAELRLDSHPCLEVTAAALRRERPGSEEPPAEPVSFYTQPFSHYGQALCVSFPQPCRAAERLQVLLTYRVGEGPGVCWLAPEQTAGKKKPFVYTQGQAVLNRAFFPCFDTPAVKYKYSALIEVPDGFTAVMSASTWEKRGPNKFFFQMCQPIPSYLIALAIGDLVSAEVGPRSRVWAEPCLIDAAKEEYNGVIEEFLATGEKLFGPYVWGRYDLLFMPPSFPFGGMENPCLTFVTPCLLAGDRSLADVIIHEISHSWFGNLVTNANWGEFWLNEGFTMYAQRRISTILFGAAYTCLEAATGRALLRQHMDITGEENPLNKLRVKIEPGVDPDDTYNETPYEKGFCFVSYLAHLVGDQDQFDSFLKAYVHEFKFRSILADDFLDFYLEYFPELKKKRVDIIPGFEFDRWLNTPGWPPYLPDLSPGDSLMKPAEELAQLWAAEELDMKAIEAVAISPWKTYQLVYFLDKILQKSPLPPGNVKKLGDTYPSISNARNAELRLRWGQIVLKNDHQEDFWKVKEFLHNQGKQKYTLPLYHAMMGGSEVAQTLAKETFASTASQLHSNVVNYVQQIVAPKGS

CC(C)CCNC(=O)C(=O)[C@@H](N)CC(C)C
Ki (Aminopeptidase B): 3.2 µM
Ki (Aminopeptidase N [1]): 10.5 µM

CC(=O)[C@@H](N)CC(C)C
Ki (Aminopeptidase B): > 1000 µM
Ki (Aminopeptidase N [1]): 430 µM

CC(C)CCNC(=O)C(=O)C(N)Cc1ccccc1 (stereo not drawn)
Ki (Aminopeptidase B): 1.5 µM
Ki (Aminopeptidase N [1]): 2.5 µM

CC(C)C[C@H](N)C(=O)CC(C)C(=O)O (stereo partly drawn)
Ki (Aminopeptidase B): 130 µM
Ki (Aminopeptidase N [2]): 940 µM
Ki (Aminopeptidase N [3]): 660 µM

CC(C)C[C@H](N)C(=O)CC(Cc1ccccc1)C(=O)O (stereo partly drawn)
Ki (Aminopeptidase B): 0.17 µM
Ki (Aminopeptidase N [2]): 260 µM
Ki (Aminopeptidase N [3]): 79 µM

CC(C)CCNC(=O)C(=O)[C@H](N)CC(C)C
Ki (Aminopeptidase B): 6.5 µM
Ki (Aminopeptidase N [1]): 18 µM

CC(C)CCNC(=O)[C@@H](O)[C@H](N)CC(C)C
Ki (Aminopeptidase B): > 300 µM
Ki (Aminopeptidase N [1]): 24 µM

CC(C)CCNC(=O)[C@@H](O)[C@H](N)Cc1ccccc1
Ki (Aminopeptidase B): 39 µM
Ki (Aminopeptidase N [1]): 20 µM
